test: log P by HPLC on a reversed-phase column (C18), EEC Directive 79/831 Annex V.A8; format: physicochemical; settings: HCOOH
Protocol: The stated log P values were determined in accordance with EEC Directive 79/831 Annex V.A8 by HPLC (High Performance Liquid Chromatography) using a reversed-phase column (C18).

| SMILES | log P (HCOOH) |
| --- | --- |
| Nc1c(-c2cc(Cl)cc(Cl)c2)c(C(F)(F)F)nn1-c1ccc(C(=O)NCc2ccccn2)cn1 [I-A-Q2-105] | I-A-Q2-105: log P (HCOOH): 3.61 |
| Cc1cc(-n2nc(C(F)(F)F)c(-c3cc(Cl)cc(Cl)c3)c2N)ccc1C(=O)NCc1ccc([N+](=O)[O-])cc1 [I-A-Q2-249] | I-A-Q2-249: log P (HCOOH): 4.28 |
| CC(NC(=O)c1ccc(-n2nc(C(F)(F)F)c(-c3cc(Cl)cc(Cl)c3)c2N)cc1)c1ccccn1 (centres unmarked) [I-A-Q2-147] | I-A-Q2-147: log P (HCOOH): 3.47 |
| Cc1cc(-n2nc(C(F)(F)F)c(-c3ccc(C#N)cc3)c2N)ccc1C(=O)NCC(F)(F)C(F)F [I-A-Q2-306] | I-A-Q2-306: log P (HCOOH): 3.24 |
| CSc1c(-c2cc(Cl)cc(C(F)(F)F)c2)c(C(F)(F)F)nn1-c1ccc(C(=O)NC(C)C(F)(F)F)cc1 (centres unmarked) [I-A-Q2-068] | I-A-Q2-068: log P (HCOOH): 5.35 |
| CCNC(=O)c1ccc(-n2nc(C(F)(F)F)c(-c3cc(Cl)cc(Cl)c3)c2N)cc1C [I-A-Q2-270] | I-A-Q2-270: log P (HCOOH): 3.84 |
| CC(NC(=O)c1ccc(-n2nc(C(F)(F)F)c(-c3cc(Cl)cc(Cl)c3)c2N)cc1)c1ccccc1 (centres unmarked) [I-A-Q2-150] | I-A-Q2-150: log P (HCOOH): 4.65 |
| Cc1cc(-n2nc(C(F)(F)F)c(-c3cc(Cl)cc(Cl)c3)c2N)ccc1C(=O)NCC(=O)N1CCOCC1 [I-A-Q2-031] | I-A-Q2-031: log P (HCOOH): 3.33 |
| Cc1cc(-n2nc(C(F)(F)F)c(-c3c(F)cc(F)cc3F)c2N)ccc1C(=O)NCC(F)(F)C(F)F [I-A-Q2-307] | I-A-Q2-307: log P (HCOOH): 3.27 |
| Cc1cc(-n2nc(C)c(-c3cc(F)ccc3F)c2N)ccc1C(=O)NCC(F)(F)C(F)F [I-A-Q2-332] | I-A-Q2-332: log P (HCOOH): 2.59 |
| Cc1cc(-n2nc(C(F)(F)F)c(-c3cc(Cl)cc(Cl)c3)c2N)ccc1C(=O)NCc1cccc(F)c1 [I-A-Q2-214] | I-A-Q2-214: log P (HCOOH): 4.45 |
| Cc1nc(CNC(=O)c2ccc(-n3nc(C(F)(F)F)c(-c4cc(Cl)cc(Cl)c4)c3N)cc2C)no1 [I-A-Q2-059] | I-A-Q2-059: log P (HCOOH): 3.63 |
| Nc1c(-c2ccc(Cl)c(F)c2)c(C(F)(F)F)nn1-c1ccc(C(=O)NC2CC2)cc1 [I-A-Q2-170] | I-A-Q2-170: log P (HCOOH): 3.15 |
| Nc1c(-c2cc(F)cc(Cl)c2)c(C(F)(F)F)nn1-c1ccc(C(=O)NC2CC2)cc1 [I-A-Q2-092] | I-A-Q2-092: log P (HCOOH): 3.27 |
| Cc1cc(-n2nc(C(F)(F)F)c(-c3cc(Cl)cc(Cl)c3)c2N)ccc1C(=O)NCC(F)(F)Br [I-A-Q2-268] | I-A-Q2-268: log P (HCOOH): 4.45 |
| Nc1c(-c2ccc(Br)cc2)c(C(F)(F)F)nn1-c1ccc(C(=O)NCc2ccccn2)cc1 [I-A-Q2-191] | I-A-Q2-191: log P (HCOOH): 2.57 |
| CC(NC(=O)c1ccc(-n2nc(-c3ccccc3)c(-c3ccc(Cl)cc3)c2N)cc1)c1ccccc1 (centres unmarked) [I-A-Q2-077] | I-A-Q2-077: log P (HCOOH): 4.17 |
| Cc1cc(-n2nc(C(F)(F)F)c(-c3ccccc3Cl)c2N)ccc1C(=O)NCC1CC1 [I-A-Q2-413] | I-A-Q2-413: log P (HCOOH): 3.37 |
| Cc1cc(-n2nc(C(F)(F)F)c(-c3ccc(Cl)c(Cl)c3)c2N)ccc1C(=O)NCc1ccccn1 [I-A-Q2-347] | I-A-Q2-347: log P (HCOOH): 3.11 |
| Cc1cc(-n2nc(C(F)(F)F)c(I)c2N)ccc1C(=O)NCC(F)(F)C(F)F [XI-A-094] | XI-A-094: log P (HCOOH): 3.08 |

| SMILES | log P (HCOOH) |
| --- | --- |
| Nc1c(-c2cc(Cl)cc(Cl)c2)c(C(F)(F)F)nn1-c1ccc(C(=O)NC2CCC2)cc1 [I-A-Q2-141] | I-A-Q2-141: log P (HCOOH): 4.21 |
| CNC(=O)c1ccc(-n2nc(C(C)C)c(-c3ccc(Cl)cc3)c2N)cc1 [I-A-Q2-074] | I-A-Q2-074: log P (HCOOH): 2.76 |
| CC(NC(=O)c1ccc(-n2nc(C(F)(F)F)c(-c3ccccc3Cl)c2N)cc1)c1ccccc1 (centres unmarked) [I-A-Q2-081] | I-A-Q2-081: log P (HCOOH): 3.58 |
| Nc1c(-c2cc(Cl)cc(Cl)c2)c(C(F)(F)F)nn1-c1ccc(C(=O)NCCCC(F)=C(F)F)cc1 [I-A-Q2-073] | I-A-Q2-073: log P (HCOOH): 4.35 |
| CCc1nn(-c2ccc(C(=O)NCC(F)(F)C(F)F)c(C)c2)c(N)c1-c1ccc(Cl)cc1 [I-A-Q2-339] | I-A-Q2-339: log P (HCOOH): 3.27 |
| Cc1cc(-n2nc(C(F)(F)Oc3ccc(Cl)cc3Cl)c(-c3cc(Cl)cc(C(F)(F)F)c3)c2N)ccc1C(=O)NCC(F)(F)C(F)F [I-A-Q2-295] | I-A-Q2-295: log P (HCOOH): 5.27 |
| Cc1cnc2c(c1)CCCC2NC(=O)c1ccc(-n2nc(C(F)(F)F)c(-c3cc(Cl)cc(Cl)c3)c2N)cc1C (centres unmarked) [I-A-Q2-051] | I-A-Q2-051: log P (HCOOH): 3.06 |
| Cc1cc(-n2nc(C(F)(F)F)c(-c3cc(Cl)cc(Cl)c3)c2N)ccc1C(=O)NCc1cccnc1 [I-A-Q2-216] | I-A-Q2-216: log P (HCOOH): 2.57 |
| C=CCNC(=O)c1ccc(-n2nc(C(F)(F)F)c(-c3cc(Cl)cc(Cl)c3)c2N)cc1 [I-A-Q2-144] | I-A-Q2-144: log P (HCOOH): 3.93 |
| Cc1cc(-n2nc(C(F)(F)C(F)(F)F)c(-c3ccc(Cl)cc3)c2N)ccc1C(=O)NCC(F)(F)C(F)F [I-A-Q2-321] | I-A-Q2-321: log P (HCOOH): 4.00 |
| Cc1cc(-n2nc(C(F)(F)F)c(-c3cc(Cl)cc(Cl)c3)c2Cl)ccc1C(=O)NCc1ncccn1 [I-A-Q2-277] | I-A-Q2-277: log P (HCOOH): 4.56 |
| CC(NC(=O)c1ccc(-n2nc(C(F)(F)F)c(-c3ccc(F)c(F)c3)c2N)cc1)C(F)(F)F (centres unmarked) [I-A-Q2-175] | I-A-Q2-175: log P (HCOOH): 3.47 |
| CCC(CC)NC(=O)c1ccc(-n2nc(C(F)(F)F)c(-c3cc(Cl)cc(Cl)c3)c2N)cc1C [I-A-Q2-225] | I-A-Q2-225: log P (HCOOH): 4.57 |
| C[S+]([O-])c1cc(-n2nc(C(F)(F)F)c(-c3cc(Cl)cc(Cl)c3)c2N)ccc1C(=O)NCc1ccccn1 (centres unmarked) [I-A-Q2-424] | I-A-Q2-424: log P (HCOOH): 2.75 |
| CSCCNC(=O)c1ccc(-n2nc(C(F)(F)F)c(-c3cc(Cl)cc(Cl)c3)c2N)cc1C [I-A-Q2-205] | I-A-Q2-205: log P (HCOOH): 4.17 |
| Cc1cccc(CNC(=O)c2ccc(-n3nc(C(F)(F)F)c(-c4cc(Cl)cc(Cl)c4)c3N)cc2C)n1 [I-A-Q2-042] | I-A-Q2-042: log P (HCOOH): 2.93 |
| CCC(C)NC(=O)c1ccc(-n2nc(C(F)(F)F)c(-c3cc(Cl)cc(Cl)c3)c2N)cc1 (centres unmarked) [I-A-Q2-145] | I-A-Q2-145: log P (HCOOH): 4.34 |
| Nc1c(-c2cccc(Cl)c2)c(C(F)(F)F)nn1-c1ccc(C(=O)NC2CCCCC2)cc1 [I-A-Q2-093] | I-A-Q2-093: log P (HCOOH): 4.00 |
| Cc1cc(-n2nc(C(F)(F)F)c(-c3cc(Cl)cc(Cl)c3)c2N)ccc1C(=O)NCc1ccc(C(F)(F)F)cn1 [I-A-Q2-233] | I-A-Q2-233: log P (HCOOH): 4.40 |

same assay, conditions: HCOOH; Table 4, compounds of formula I-A-Q4

| SMILES | log P (HCOOH) |
| --- | --- |
| COC(=O)c1ccc(-n2nc(C(F)(F)F)c(-c3cc(Cl)cc(Cl)c3)c2N)cc1N(C)C [I-A-Q4-119] | I-A-Q4-119: log P (HCOOH): 4.71 |
| Nc1c(-c2ccccc2Cl)c(C(F)(F)F)nn1-c1ccc(Cl)cn1 [I-A-Q4-023] | I-A-Q4-023: log P (HCOOH): 4.57 |
| N#Cc1ccc(-c2c(C(F)(F)F)nn(-c3ccc(Cl)cn3)c2N)cc1 [I-A-Q4-045] | I-A-Q4-045: log P (HCOOH): 4.11 |
| CCOC(=O)c1ccc(-n2nc(C(F)(F)F)c(-c3cc(Cl)cc(Cl)c3)c2N)cc1 [I-A-Q4-086] | I-A-Q4-086: log P (HCOOH): 4.93 |
| Nc1c(-c2cccc(F)c2)c(C(F)(F)F)nn1-c1ccc(Cl)cn1 [I-A-Q4-049] | I-A-Q4-049: log P (HCOOH): 4.51 |
| Cc1cc(C)cc(-c2c(C(F)(F)F)nn(-c3ccc(C(=O)O)cc3)c2N)c1 [I-A-Q4-090] | I-A-Q4-090: log P (HCOOH): 3.42 |
| Nc1c(-c2ccc(Cl)c(F)c2)c(C(F)(F)F)nn1-c1ccc(C(=O)O)cc1 [I-A-Q4-093] | I-A-Q4-093: log P (HCOOH): 3.39 |
| Nc1c(-c2ccc(Cl)c(Cl)c2)c(C(F)(F)F)nn1-c1ccc(Cl)cn1 [I-A-Q4-043] | I-A-Q4-043: log P (HCOOH): 5.44 |
| Cc1nn(-c2ccc(Cl)cn2)c(N)c1-c1ccc(F)cc1Cl [I-A-Q4-037] | I-A-Q4-037: log P (HCOOH): 4.05 |
| Nc1c(-c2cccc(Cl)c2)c(C(F)(F)F)nn1-c1ccc(C(=O)O)cc1 [I-A-Q4-096] | I-A-Q4-096: log P (HCOOH): 3.20 |
| CSc1c(-c2ccc(Cl)c(Cl)c2)c(C(F)(F)F)nn1-c1ncc(Cl)cn1 [I-A-Q4-020] | I-A-Q4-020: log P (HCOOH): 5.22 |
| CCS(=O)(=O)c1ccc(-n2nc(C(F)(F)F)c(-c3cc(Cl)cc(Cl)c3)c2N)c(F)c1 [I-A-Q4-019] | I-A-Q4-019: log P (HCOOH): 3.94 |
| Nc1c(-c2cc(Cl)cc(Cl)c2)c(C(F)(F)F)nn1-c1ccc(F)c(F)c1 [I-A-Q4-109] | I-A-Q4-109: log P (HCOOH): 4.77 |
| Nc1c(-c2ccc(Cl)cc2)c(-c2ccccc2)nn1-c1ccc(Cl)cn1 [I-A-Q4-028] | I-A-Q4-028: log P (HCOOH): 5.64 |

same assay, conditions: HCOOH; compounds of the formula (IX), Table 11

| SMILES | log P (HCOOH) |
| --- | --- |
| CC(=O)Nc1[nH]nc(C(F)(F)F)c1-c1ccc(Cl)cc1Cl [IX-204] | IX-204: log P (HCOOH): 2.79 |
| Nc1[nH]nc(C(F)(F)F)c1-c1ccc(F)cc1 [IX-202] | IX-202: log P (HCOOH): 2.16 |

same assay, conditions: HPLC, reversed-phase C18, mobile phase with formic acid

| SMILES | log P (HCOOH) |
| --- | --- |
| N#Cc1cc(-n2nc(C(F)(F)F)c(-c3cc(Cl)cc(Cl)c3)c2N)ccc1-n1cc(F)cn1 [I-A-Q1-092] | I-A-Q1-092: log P (HCOOH): 4.40 |
| Cc1cc(C)cc(-c2c(C(F)(F)F)nn(-c3ccc(-n4cncn4)c(C#N)c3)c2N)c1 [I-A-Q1-038] | I-A-Q1-038: log P (HCOOH): 3.33 |
| COc1cnn(-c2ccc(-n3nc(C(F)(F)F)c(-c4cc(Cl)cc(Cl)c4)c3N)cc2C#N)c1 [I-A-Q1-085] | I-A-Q1-085: log P (HCOOH): 4.45 |
| Cc1nn(-c2ccc(-n3cncn3)c(C#N)c2)c(N)c1-c1ccc(Cl)cc1Cl [I-A-Q1-056] | I-A-Q1-056: log P (HCOOH): 2.80 |
| Cc1nn(-c2ccc(-n3cncn3)c(C#N)c2)c(N)c1-c1ccc(F)cc1F [I-A-Q1-057] | I-A-Q1-057: log P (HCOOH): 2.35 |
| Cc1nn(-c2ccc(-n3cncn3)c(C#N)c2)c(N)c1-c1ccc(F)cc1Cl [I-A-Q1-052] | I-A-Q1-052: log P (HCOOH): 2.43 |
| N#Cc1cc(-n2nc(C(F)(F)F)c(-c3ccc(Br)cc3)c2N)ccc1-n1cncn1 [I-A-Q1-040] | I-A-Q1-040: log P (HCOOH): 3.44 |
